Assay results reported in patent publication US6358885B1, “Substituted phenylheterocyclic herbicides” (Mississippi State University, priority 1992, dated 2002).

Legend:
Experiment in all cases: Test B preemergence/postemergence greenhouse plant response rating 0 to 10
[1] = tested on: rice; assay type: in vivo, Oryza sativa; settings: for Plant response rating, Rice: 0 to 10 scale
How it was run: (§1)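 Test chemicals, dissolved in a non-phytotoxic solvent, were applied to soil at planting and, at the same time, over foliage of seedlings at the one to four leaf stage.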

[2] = tested on: morningglory; assay type: in vivo, Ipomoea hederacea; settings: for Plant response rating, Morningglory: 0 to 10 scale
How it was run: as §1

[3] = tested on: lambsquarters; assay type: in vivo, Chenopodium album; settings: for Plant response rating, Lambsquarter: 0 to 10 scale
How it was run: as §1

[4] = tested on: blackgrass; assay type: in vivo, Alopecurus myosuroides; settings: for Plant response rating, Blackgrass: POSTEMERGENCE, 0 to 10 scale
How it was run: as §1

[5] = tested on: sorghum; assay type: in vivo, Sorghum bicolor; settings: for Plant response rating, Sorghum: 0 to 10 scale
How it was run: as §1

[6] = tested on: sugar beet; assay type: in vivo, Beta vulgaris; settings: for Plant response rating, Sugar beet: 0 to 10 scale
How it was run: as §1

[7] = tested on: giant foxtail; assay type: in vivo, Setaria faberii; settings: for Plant response rating, Giant foxtail: 0 to 10 scale
How it was run: as §1

[8] = tested on: rape; assay type: in vivo, Brassica napus; settings: for Plant response rating, Rape: 0 to 10 scale
How it was run: as §1

[9] = tested on: bedstraw; assay type: in vivo, Galium aparine; settings: for Plant response rating, Bedstraw: 0 to 10 scale
How it was run: as §1

[10] = tested on: barnyardgrass; assay type: in vivo, Echinochloa crus-galli; settings: for Plant response rating, Barnyardgrass: 0 to 10 scale
How it was run: as §1

[11] = tested on: purple nutsedge; assay type: in vivo, Cyperus rotundus; settings: for Plant response rating, Nutsedge: 0 to 10 scale
How it was run: as §1

[12] = tested on: wild buckwheat; assay type: in vivo, Polygonum convolvulus; settings: for Plant response rating, Wild buckwheat: 0 to 10 scale
How it was run: as §1

[13] = tested on: cocklebur; assay type: in vivo, Xanthium pensylvanicum; settings: for Plant response rating, Cocklebur: 0 to 10 scale
How it was run: as §1

[14] = tested on: velvetleaf; assay type: in vivo, Abutilon theophrasti; settings: for Plant response rating, Velvetleaf: 0 to 10 scale
How it was run: as §1

[15] = tested on: barley; assay type: in vivo, Hordeum vulgare; settings: for Plant response rating, Barley: 0 to 10 scale
How it was run: as §1

[16] = tested on: cheatgrass; assay type: in vivo, Bromus secalinus; settings: for Plant response rating, Cheatgrass: 0 to 10 scale
How it was run: as §1

[17] = tested on: crabgrass; assay type: in vivo, Digitaria spp.; settings: for Plant response rating, Crabgrass: 0 to 10 scale
How it was run: as §1

[18] = tested on: corn; assay type: in vivo, Zea mays; settings: for Plant response rating, Corn: 0 to 10 scale
How it was run: as §1

[19] = tested on: chickweed; assay type: in vivo, Stellaria media; settings: for Plant response rating, Chickweed: 0 to 10 scale
How it was run: as §1

[20] = tested on: soybean; assay type: in vivo, Glycine max; settings: for Plant response rating, Soybean: 0 to 10 scale
How it was run: as §1

[21] = tested on: wild oat; assay type: in vivo, Avena fatua; settings: for Plant response rating, Wild oat: 0 to 10 scale
How it was run: as §1

[22] = tested on: wheat; assay type: in vivo, Triticum aestivum; settings: for Plant response rating, Wheat: 0 to 10 scale
How it was run: as §1

[23] = tested on: cotton; assay type: in vivo, Gossypium hirsutum; settings: for Plant response rating, Cotton: 0 to 10 scale
How it was run: as §1

Clc1cc(Cl)c(-c2nn3c(c2Cl)CCCC3)cc1OCC1CC1 [Compound 69]
Plant response rating, Rice ([1]; POSTEMERGENCE, Rate 50 g/ha): 5 | Plant response rating, Rice ([1]; PREEMERGENCE, Rate 50 g/ha): 0 | Plant response rating (0 to 10 scale), Rice ([1]; PREEMERGENCE, Rate 200 g/ha): 0 | Plant response rating, Rice ([1]; Rate 200 g/ha, POSTEMERGENCE): 6 | Plant response rating, Morningglory ([2]; POSTEMERGENCE, Rate 50 g/ha): 7 | Plant response rating, Morningglory ([2]; PREEMERGENCE, Rate 50 g/ha): 0 | Plant response rating (0 to 10 scale), Morningglory ([2]; PREEMERGENCE, Rate 200 g/ha): 0 | Plant response rating, Morningglory ([2]; Rate 200 g/ha, POSTEMERGENCE): 7 | Plant response rating, Lambsquarter ([3]; POSTEMERGENCE, Rate 50 g/ha): 8 | Plant response rating, Lambsquarter ([3]; PREEMERGENCE, Rate 50 g/ha): 9 | Plant response rating (0 to 10 scale), Lambsquarter ([3]; PREEMERGENCE, Rate 200 g/ha): 10 | Plant response rating, Lambsquarter ([3]; Rate 200 g/ha, POSTEMERGENCE): 8 | Plant response rating, Blackgrass ([4]; Rate 50 g/ha): 3 | Plant response rating (0 to 10 scale), Blackgrass ([4]; PREEMERGENCE, Rate 200 g/ha): 2 | Plant response rating, Blackgrass ([4]; Rate 200 g/ha): 5 | Plant response rating, Sorghum ([5]; POSTEMERGENCE, Rate 50 g/ha): 4 | Plant response rating, Sorghum ([5]; PREEMERGENCE, Rate 50 g/ha): 0 | Plant response rating (0 to 10 scale), Sorghum ([5]; PREEMERGENCE, Rate 200 g/ha): 0 | Plant response rating, Sorghum ([5]; Rate 200 g/ha, POSTEMERGENCE): 6 | Plant response rating, Sugar beet ([6]; POSTEMERGENCE, Rate 50 g/ha): 10 | Plant response rating, Sugar beet ([6]; PREEMERGENCE, Rate 50 g/ha): 3 | Plant response rating (0 to 10 scale), Sugar beet ([6]; PREEMERGENCE, Rate 200 g/ha): 6 | Plant response rating, Sugar beet ([6]; Rate 200 g/ha, POSTEMERGENCE): 9 | Plant response rating, Giant foxtail ([7]; POSTEMERGENCE, Rate 50 g/ha): 5 | Plant response rating, Giant foxtail ([7]; PREEMERGENCE, Rate 50 g/ha): 2 | Plant response rating (0 to 10 scale), Giant foxtail ([7]; PREEMERGENCE, Rate 200 g/ha): 5 | Plant response rating, Giant foxtail ([7]; Rate 200 g/ha, POSTEMERGENCE): 5 | Plant response rating, Rape ([8]; POSTEMERGENCE, Rate 50 g/ha): 6 | Plant response rating, Rape ([8]; PREEMERGENCE, Rate 50 g/ha): 2 | Plant response rating (0 to 10 scale), Rape ([8]; PREEMERGENCE, Rate 200 g/ha): 3 | Plant response rating, Rape ([8]; Rate 200 g/ha, POSTEMERGENCE): 8 | Plant response rating, Bedstraw ([9]; POSTEMERGENCE, Rate 50 g/ha): 5 | Plant response rating, Bedstraw ([9]; PREEMERGENCE, Rate 50 g/ha): 0 | Plant response rating (0 to 10 scale), Bedstraw ([9]; PREEMERGENCE, Rate 200 g/ha): 6 | Plant response rating, Bedstraw ([9]; Rate 200 g/ha, POSTEMERGENCE): 7 | Plant response rating, Barnyardgrass ([10]; POSTEMERGENCE, Rate 50 g/ha): 4 | Plant response rating, Barnyardgrass ([10]; PREEMERGENCE, Rate 50 g/ha): 0 | Plant response rating (0 to 10 scale), Barnyardgrass ([10]; PREEMERGENCE, Rate 200 g/ha): 1 | Plant response rating, Barnyardgrass ([10]; Rate 200 g/ha, POSTEMERGENCE): 6 | Plant response rating, Nutsedge ([11]; POSTEMERGENCE, Rate 50 g/ha): 2 | Plant response rating, Nutsedge ([11]; PREEMERGENCE, Rate 50 g/ha): 0 | Plant response rating (0 to 10 scale), Nutsedge ([11]; PREEMERGENCE, Rate 200 g/ha): 0 | Plant response rating, Nutsedge ([11]; Rate 200 g/ha, POSTEMERGENCE): 2 | Plant response rating, Wild buckwheat ([12]; POSTEMERGENCE, Rate 50 g/ha): 10 | Plant response rating, Wild buckwheat ([12]; PREEMERGENCE, Rate 50 g/ha): 0 | Plant response rating (0 to 10 scale), Wild buckwheat ([12]; PREEMERGENCE, Rate 200 g/ha): 0 | Plant response rating, Wild buckwheat ([12]; Rate 200 g/ha, POSTEMERGENCE): 10 | Plant response rating, Cocklebur ([13]; POSTEMERGENCE, Rate 50 g/ha): 8 | Plant response rating, Cocklebur ([13]; PREEMERGENCE, Rate 50 g/ha): 0 | Plant response rating (0 to 10 scale), Cocklebur ([13]; PREEMERGENCE, Rate 200 g/ha): 0 | Plant response rating, Cocklebur ([13]; Rate 200 g/ha, POSTEMERGENCE): 8 | Plant response rating, Velvetleaf ([14]; POSTEMERGENCE, Rate 50 g/ha): 10 | Plant response rating, Velvetleaf ([14]; PREEMERGENCE, Rate 50 g/ha): 1 | Plant response rating (0 to 10 scale), Velvetleaf ([14]; PREEMERGENCE, Rate 200 g/ha): 9 | Plant response rating, Velvetleaf ([14]; Rate 200 g/ha, POSTEMERGENCE): 9 | Plant response rating, Barley ([15]; POSTEMERGENCE, Rate 50 g/ha): 4 | Plant response rating, Barley ([15]; PREEMERGENCE, Rate 50 g/ha): 0 | Plant response rating (0 to 10 scale), Barley ([15]; PREEMERGENCE, Rate 200 g/ha): 0 | Plant response rating, Barley ([15]; Rate 200 g/ha, POSTEMERGENCE): 4 | Plant response rating, Cheatgrass ([16]; POSTEMERGENCE, Rate 50 g/ha): 3 | Plant response rating, Cheatgrass ([16]; PREEMERGENCE, Rate 50 g/ha): 0 | Plant response rating (0 to 10 scale), Cheatgrass ([16]; PREEMERGENCE, Rate 200 g/ha): 4 | Plant response rating, Cheatgrass ([16]; Rate 200 g/ha, POSTEMERGENCE): 6 | Plant response rating, Crabgrass ([17]; POSTEMERGENCE, Rate 50 g/ha): 4 | Plant response rating, Crabgrass ([17]; PREEMERGENCE, Rate 50 g/ha): 2 | Plant response rating (0 to 10 scale), Crabgrass ([17]; PREEMERGENCE, Rate 200 g/ha): 5 | Plant response rating, Crabgrass ([17]; Rate 200 g/ha, POSTEMERGENCE): 4 | Plant response rating, Corn ([18]; POSTEMERGENCE, Rate 50 g/ha): 3 | Plant response rating, Corn ([18]; PREEMERGENCE, Rate 50 g/ha): 0 | Plant response rating (0 to 10 scale), Corn ([18]; PREEMERGENCE, Rate 200 g/ha): 0 | Plant response rating, Corn ([18]; Rate 200 g/ha, POSTEMERGENCE): 3 | Plant response rating, Chickweed ([19]; POSTEMERGENCE, Rate 50 g/ha): 2 | Plant response rating, Chickweed ([19]; PREEMERGENCE, Rate 50 g/ha): 0 | Plant response rating (0 to 10 scale), Chickweed ([19]; PREEMERGENCE, Rate 200 g/ha): 0 | Plant response rating, Chickweed ([19]; Rate 200 g/ha, POSTEMERGENCE): 3 | Plant response rating, Soybean ([20]; POSTEMERGENCE, Rate 50 g/ha): 2 | Plant response rating, Soybean ([20]; PREEMERGENCE, Rate 50 g/ha): 0 | Plant response rating (0 to 10 scale), Soybean ([20]; PREEMERGENCE, Rate 200 g/ha): 0 | Plant response rating, Soybean ([20]; Rate 200 g/ha, POSTEMERGENCE): 5 | Plant response rating, Wild oat ([21]; POSTEMERGENCE, Rate 50 g/ha): 3 | Plant response rating, Wild oat ([21]; PREEMERGENCE, Rate 50 g/ha): 0 | Plant response rating (0 to 10 scale), Wild oat ([21]; PREEMERGENCE, Rate 200 g/ha): 0 | Plant response rating, Wild oat ([21]; Rate 200 g/ha, POSTEMERGENCE): 4 | Plant response rating, Wheat ([22]; POSTEMERGENCE, Rate 50 g/ha): 4 | Plant response rating, Wheat ([22]; PREEMERGENCE, Rate 50 g/ha): 0 | Plant response rating (0 to 10 scale), Wheat ([22]; PREEMERGENCE, Rate 200 g/ha): 2 | Plant response rating, Wheat ([22]; Rate 200 g/ha, POSTEMERGENCE): 6 | Plant response rating, Cotton ([23]; POSTEMERGENCE, Rate 50 g/ha): 10 | Plant response rating, Cotton ([23]; PREEMERGENCE, Rate 50 g/ha): 0 | Plant response rating (0 to 10 scale), Cotton ([23]; PREEMERGENCE, Rate 200 g/ha): 0 | Plant response rating, Cotton ([23]; Rate 200 g/ha, POSTEMERGENCE): 10
